Experimental data as given in US20240228633A9, “METHODS OF TREATING CANCER WITH PDGFR ALPHA INHIBITORS” (Eli Lilly and Company, priority 2021, published 2024).
Like-named read-outs stand apart in the source and are kept apart here.

Assays:
LMS = test: Median overall survival in LMS patients by PDGFRβ tumor status; format: in vivo, human; settings: for OS HR: LMS female patients; for Hazard Ratio, overall survival / Hazard Ratio (95% CI), overall survival: Olaratumab + Doxorubicin vs Placebo + Doxorubicin; for OS HR adjusted for ECOG PS: adjusting for ECOG PS
[1] = tested on: advanced or metastatic soft tissue sarcoma; settings: STS patients; for HR (95% CI), overall survival: Olaratumab + Doxorubicin vs Placebo + Doxorubicin
Procedure: Study Design: Patients with advanced or metastatic soft tissue sarcoma are treated with olaratumab (20 mg/kg loading dose on Days 1 and 8 of a 21-day cycle in Cycle 1, followed by 15 mg/kg on Days 1 and 8 in subsequent 21-day cycle) in combination with doxorubicin (75 mg/m^2 on Day 1) (“investigational cohort”) and compared to patients treated with placebo (on Days 1 and 8) plus doxorubicin (75 mg/m^2 on Day 1) (“control cohort”). Patients are treated for 8 cycles, followed by olaratumab monotherapy or placebo until evidence of progressive disease, unacceptable toxicity or death. […] Patients are assessed for median overall survival (OS).
Immunohistochemistry Assay to determine PDGFR/3 expression: For immunohistochemistry analysis, tumor tissue from patients is collected, formalin-fixed in 10% neutral buffered formalin, and paraffin-embedded (FFPE). PDGFRβ protein expression on tumor cells is assessed by immunohistochemistry. Briefly, from FFPE tissue blocks containing the patient tumor tissue, a 4-6 micrometer section is obtained and placed on a positively charged glass slide. Anti-PDGFRβ mouse monoclonal antibody 2B3 is used to detect expression of PDGFRβ (clone 2B3, Cell Signaling Technology® catalog number 3175S), diluted in Dako Primary Antibody Diluent with Background Reducing Components (Dako/Agilent catalog number S3022) at 0.25 μm/mL. Immunohistochemistry is performed on a Dako Autostainer Link 48/PT Link Incubator. Deparaffinization with the Link 48/PT Link Incubator is accomplished at 97° C. for 20 minutes. Target retrieval is next accomplished with immersion of the unstained slides into EnVision™ FLEX Target Retrieval Solution High pH (Dako) on the Dako Link48/PT Link Incubator. Following a rinse in RT EnVision™ FLEX Wash Buffer (1×), specific immunohistochemical staining with the 2B3 antibody is accomplished by FLEX Peroxidase Block for 5 minutes, application of the 0.25 ug/mL concentration of anti-human PDGFRβ antibody 2B3 with incubation for 60 minutes, followed by FLEX/HRP application and incubation for 20 minutes, then application of FLEX DAB+ Substrate Chromogen for 10 minutes, and finally FLEX hematoxylin for 5 minutes. Ready-to-use FLEX Mouse Negative Control (Dako/Agilent catalog number IR750) is performed alongside PDGFRβ staining and used as a quality control (negative control) for the assay. Stained slides are then evaluated by trained personnel using a brightfield microscope.

soft tissue sarcoma = settings: clinical trials for treating soft tissue sarcoma; cited from earlier work
[2] = LMS patients excluding PDGFRβ positive females
[3] = LMS patients, PDGFRβ negative tumor status
[4] = LMS patients, PDGFRβ positive tumor status
[5] = PDGFRβ negative and PDGFRα positive tumor status

Question: With “Olaratumab + Doxorubicin: olaratumab (antibody that binds human PDGFRα) in combination with doxorubicin, followed by olaratumab monotherapy” as the substance, how does the “OS HR” value (LMS; PDGFRβ negative tumor status) read?
Answer: 0.55

Question: And the “OS HR” value (LMS; PDGFRβ positive tumor status)?
Answer: 1.34

Question: What about the “Median OS months” value (LMS; [2]) of the same substance?
Answer: 28.5 months

Question: And the “Hazard Ratio, overall survival” value (LMS; [2])?
Answer: 0.60; p = 0.035

Question: What about the “Hazard Ratio, overall survival” value (LMS; LMS patients excluding PDGFRβ positive females, listed as investigational cohort) of the same substance?
Answer: 0.60

Question: And the “Median OS months” value (LMS; [3])?
Answer: 29.11 months

Question: What about the “Hazard Ratio (95% CI), overall survival” value (LMS; LMS patients, PDGFRβ negative) of the same substance?
Answer: 0.65 (0.33, 1.25)

Question: And the “Hazard Ratio (95% CI), overall survival” value (LMS; LMS patients, PDGFRβ negative, listed as investigational cohort)?
Answer: 0.65

Question: And the “Median OS months” value (LMS; [4])?
Answer: 20.14 months

Question: What about the “Hazard Ratio (95% CI), overall survival” value (LMS; LMS patients, PDGFRβ positive) of the same substance?
Answer: 1.05 ((0.71, 1.55)

Question: What about the “Hazard Ratio (95% CI), overall survival” value (LMS; LMS patients, PDGFRβ positive, listed as investigational cohort) of the same substance?
Answer: 1.05

Question: And the “OS HR adjusted for ECOG PS” value (LMS; PDGFRβ negative women with LMS)?
Answer: 0.55

Question: And the “OS HR adjusted for ECOG PS” value (LMS; PDGFRβ positive women with LMS)?
Answer: 1.34

Question: And the “median OS” value ([1]; PDGFRα negative tumor status)?
Answer: 23.6 months

Question: And the “median OS” value ([1]; PDGFRα positive tumor status)?
Answer: 17.2 months

Question: And the “median OS” value [1, 5]?
Answer: 28.5 months

Question: What about the “Median OS months” value ([1]; PDGFRβ negative tumor status) of the same substance?
Answer: 28.32 months

Question: What about the “HR (95% CI), overall survival” value ([1]; PDGFRβ negative) of the same substance?
Answer: 0.85 (0.54-1.33)

Question: What about the “HR (95% CI), overall survival” value ([1]; PDGFRβ negative, listed as investigational cohort) of the same substance?
Answer: 0.85

Question: What about the “Median OS months” value ([1]; PDGFRβ positive tumor status) of the same substance?
Answer: 18.79 months

Question: What about the “Median OS months” value ([1]; PDGFRβ positive tumor status, listed as investigational cohort) of the same substance?
Answer: 18.8 months

Question: And the “HR (95% CI), overall survival” value ([1]; PDGFRβ positive)?
Answer: 1.10 (0.84-1.44)

Question: For “doxorubicin [Placebo + Doxorubicin, reference compound]”, which “Median OS months” value (LMS; [2]) is on record?
Answer: 20.9 months

Question: What about the “Median OS months” value (LMS; [3]) of the same substance?
Answer: 21.88 (16.72, 35.55) months

Question: What about the “Median OS months” value (LMS; LMS patients, PDGFRβ negative tumor status, listed as control cohort) of the same substance?
Answer: 21.88 months

Question: And the “Median OS months” value (LMS; [4])?
Answer: 21.39 (15.57, 24.57) months

Question: What about the “Median OS months” value (LMS; LMS patients, PDGFRβ positive tumor status, listed as control cohort) of the same substance?
Answer: 21.39 months

Question: And the “median OS” value ([1]; PDGFRα negative tumor status)?
Answer: 21.9 months

Question: What about the “median OS” value ([1]; PDGFRα positive tumor status) of the same substance?
Answer: 19.1 months

Question: And the “median OS” value [1, 5]?
Answer: 20.6 months

Question: What about the “Median OS months” value ([1]; PDGFRβ negative tumor status) of the same substance?
Answer: 20.57 months

Question: What about the “Median OS months” value ([1]; PDGFRβ positive tumor status) of the same substance?
Answer: 19.88 months

Question: What about the “Median OS months” value ([1]; PDGFRβ positive tumor status, listed as control cohort) of the same substance?
Answer: 19.9 months

Question: With “LARTRUVO®: an antibody that specifically binds human PDGFRα” as the substance, how does the “therapeutic endpoints in clinical trials” value (soft tissue sarcoma) read?
Answer: failed to meet certain therapeutic endpoints
